Measured values as given in US5948931A (priority 1997, dated 1999).
Structures can show the parent of a compound that is named as a salt. Where two headings read alike, the source gives them in different places.

Experiments:
[1] = about pH 5-8, preferably about pH 6-7
[2] = Stability / hydrolysis-fragmentation of E-16 (anilinium salt E-19) in water; type: physicochemical; settings: for half-life: read-out: t1/2 of decomposition in H2O (converted)
Procedure: Stability of E-19. These experiments were carried out in 5 mm glass NMR tubes at 22° C., concentration of E-4 0.1% (w/v).

[3] = Kinetic measurements of hydrolysis (release of p-nitrophenoxide), effect of Mg2+; type: physicochemical; settings: for enhancement of hydrolysis rate by MgCl2 (factor): 0.2 M MgCl2, pH 8.5, 25° C.
From the text: Kinetic Measurements of the Hydrolysis of E-19.

[4] = Stability of DCHA+ salts 3 heated in different solvents (31P NMR); type: physicochemical; settings: conditions similar to refluxing AN
Procedure: Stability of DCHA^+ Salts 3 Heated in Different Solvents. 40 mg 3 (E or Z) was heated in 5 ml of alcohol mixture, H2 O or acetonitrile. Reaction progress was monitored by ^31 P NMR spectroscopy.

[5] = Kinetics of hydrolysis of PNHDA, dependence on pH and Ni2+; type: physicochemical; design: K / K': unit not given here
Procedure: The rates of hydrolysis of p-nitrophenyl(hydroxyimino)-(dihydroxyphosphinyl)acetate (16) were determined with Shimadzu UV-260 spectrophotometer by monitoring appearance of thep-nitrophenol at 400 nm (pH 6-11) and 317 nm (pH 4-5) and disappearance of reactant (16) at 217 nm (pH 4-5). The product spectra were quantitatively identified with those of equivalent concentration of p-nitrophenol under the same conditions. Reaction mixture pH values were measured. at 25 and 50° C. with a Beckman Model 71 pH meter. For non-metal ion-assisted reactions, a few buffer solutions were prepared with EDTA (2×10^-5) as a precaution against trace metal ions in the buffer and salts, but the same results were obtained as with the non-EDTA-containing buffers. Buffers employed were acetate (pH 4.2-5.3), N-ethyl morpholine (pH 6.7-7.8), and borate (pH 8-11). The buffer concentrations were 0.02-0.01 M (no significant catalytic effect). The ionic strength was 0.5-1.0 M, maintained with NaCl.
To initiate a kinetic run, 50-100 μl of 19 stock solution (0.002 M in H2 O) was injected into 2-3 ml of reactant solution maintained at the desired temperature. The reactions followed pseudo-first-order kinetics for at least 3 half-lives. Kinetic parameters were calculated with a linear least-squares computer program.

SMILES: O=C(O)/C(=N\O)P(=O)(O)O [E-7, α-(hydroxyimino)phosphonoacetic acid]
- phosphorylating activity [1]: active phosphorylating agent

SMILES: O=C(Oc1ccc([N+](=O)[O-])cc1)/C(=N\O)P(=O)(O)O [E-19, Anilinium Salt of p-Nitrophenyl (E)-(Hydroxyimino)(dihydroxyphophinyl)acetate]
- storage stability ([2]; anilinium salt, storage): stable to storage
- reaction order of hydrolysis ([3]; pH 8.5, 25° C.): pseudo-first order

SMILES: COP(=O)(O)C(=NO)c1ccccc1 [methyl α-(hydroxyimino)benzylphosphonate anion, reference compound]
- thermal stability [4]: thermally stable

SMILES: CC(=O)Oc1ccc([N+](=O)[O-])cc1 [p-nitrophenyl acetate, reference compound]
- enhancement of hydrolysis rate by MgCl2 (factor) [3]: not altered significantly
- reaction order of hydrolysis ([3]; pH 8.5, 25° C.): pseudo-first order

SMILES: COP(=O)(O)/C(=N/O)C(=O)O [E-8, (E)-(hydroxyimino)(hydroxymethoxyphosphinyl)acetic acid]
- stability in water (about pH 7, about 24 hours, room temperature): stable
- methyl phosphate formed (pH 1.5): 15%
- methyl phosphorocyanidate formed (pH 1.5): 85%
- rate of E-8→Z-8→15 relative to dissociative fragmentation (pH 1.5): about 6 ×
- decomposition (pH 1.5, over 2.5 hours): quantitatively decomposed
- reactivity (pH 7, 25° C.): unreactive

SMILES: O=C(Oc1ccc([N+](=O)[O-])cc1)/C(=N\O)P(=O)(O)O [E-16, p-nitrophenyl (E)-(dihydroxyphosphinyl)(hydroxyimino)acetate]
- phosphate among products ([2]; pH 6.5): 92%
- phosphorocyanidate among products ([2]; pH 6.5): 8%
- phosphate among products ([2]; pH 8.5): 80%
- phosphorocyanidate among products ([2]; pH 8.5): 20%
- phosphoric acid and methyl phosphate, total ([2]; pH 8.5, 1:1 water:methanol): 34%
- formation of phosphorocyanidate ([2]; pH 8.5, presence of Mg2+): not observed
- hydrolysis rate in words ([2]; pH 8.5, presence of Mg2+): faster
- phosphate among products ([2]; pH about 3, 52 hr): 100%
- degraded at 52 h ([2]; water, pH 3, pH about 3, 52 hr, read-out: decomposition in H2O): < 4%
- half-life ([2]; water, pH 6.5): ~30 h
- half-life ([2]; water, pH 8.5): ~1 h
- rate of release of p-nitrophenoxide vs. p-nitrophenyl acetate (times faster) ([3]; 0.2 M MgCl2): 40 ×
- enhancement of hydrolysis rate by MgCl2 (factor) [3]: 2.5 (±0.1)
- rate of release of p-nitrophenoxide vs. p-nitrophenyl acetate (times faster) ([3]; pH 8.5, 25° C., no Mg2+): 20 ×
- acceleration of p-nitrophenyl ester hydrolysis by (E)-oxime group ([3]; qualitative): several orders of magnitude
- enhancement of rate by Ni2+ (factor) ([5]; 0.01M Ni2+, pH 4.2): 3
- enhancement of Kobsd by Ni2+ (factor) ([5]; 0.01M Ni2+, pH 6.5): 28
- enhancement of Kobsd by Ni2+ (factor) ([5]; 0.01M Ni2+, pH 7.4): 20
- Ni2+ concentration with saturation effect on Kobsd ([5]; constant pH): 7 mM
- K ([5]; pH 4.2, Ni = 0.01M, 50° C.): 0.015
- log (k) ([5]; pH 4.2, Ni = 0.01M, 50° C.): -1.824
- K ([5]; pH 4.2, no metal ion, 50° C.): 0.0049
- log (k) ([5]; pH 4.2, no metal ion, 50° C.): -2.311
- K ([5]; pH 5.2, no metal ion, 50° C.): 0.0156
- K' ([5]; pH 5.2, no metal ion, 50° C.): 0.0165
- log (K') ([5]; pH 5.2, no metal ion, 50° C.): -1.78
- log (k) ([5]; pH 5.2, no metal ion, 50° C.): -1.807
- K ([5]; pH 6.5, Ni = 0.01M, 50° C.): 0.31
- log (k) ([5]; pH 6.5, Ni = 0.01M, 50° C.): -0.509
- K ([5]; pH 6.5, no metal ion, 50° C.): 0.011
- K' ([5]; pH 6.5, no metal ion, 50° C.): 0.009
- log (K') ([5]; pH 6.5, no metal ion, 50° C.): -2.05
- log (k) ([5]; pH 6.5, no metal ion, 50° C.): -1.959
- K ([5]; pH 7.4, Ni = 0.01M, 50° C.): 1.127
- K' ([5]; pH 7.4, Ni = 0.01M, 50° C.): 1.1
- log (K') ([5]; pH 7.4, Ni = 0.01M, 50° C.): 0.041
- log (k) ([5]; pH 7.4, Ni = 0.01M, 50° C.): 0.052
- K ([5]; pH 7.4, no metal ion, 50° C.): 0.0563
- K' ([5]; pH 7.4, no metal ion, 50° C.): 0.0605
- log (K') ([5]; pH 7.4, no metal ion, 50° C.): -1.22
- log (k) ([5]; pH 7.4, no metal ion, 50° C.): -1.249
- K ([5]; pH 8.5, no metal ion, 25° C.): 0.052
- K' ([5]; pH 8.5, no metal ion, 25° C.): 0.05635
- log (K') ([5]; pH 8.5, no metal ion, 25° C.): -1.249
- log (k) ([5]; pH 8.5, no metal ion, 25° C.): -1.288
- K ([5]; pH 9, no metal ion, 25° C.): 0.101
- K' ([5]; pH 9, no metal ion, 25° C.): 0.101
- log (K') ([5]; pH 9, no metal ion, 25° C.): -0.996
- log (k) ([5]; pH 9, no metal ion, 25° C.): -0.997
- K ([5]; pH 9.5, no metal ion, 25° C.): 0.33
- K' ([5]; pH 9.5, no metal ion, 25° C.): 0.33
- log (K') ([5]; pH 9.5, no metal ion, 25° C.): -0.481
- log (k) ([5]; pH 9.5, no metal ion, 25° C.): -0.481
- K ([5]; pH 10, no metal ion, 25° C.): 0.629
- K' ([5]; pH 10, no metal ion, 25° C.): 0.603
- log (K') ([5]; pH 10, no metal ion, 25° C.): -0.22
- log (k) ([5]; pH 10, no metal ion, 25° C.): -0.201
- K ([5]; pH 11, no metal ion, 25° C.): 1.2
- K' ([5]; pH 11, no metal ion, 25° C.): 1.249
- log (K') ([5]; pH 11, no metal ion, 25° C.): 0.0966
- log (k) ([5]; pH 11, no metal ion, 25° C.): 0.079
- hydroxide dependence of hydrolysis ([5]; pH<7): independent of hydroxide ion concentrations
- hydroxide dependence of hydrolysis ([5]; pH>8): hydroxide ion catalyzed
- slope of log Kobsd vs pH ([5]; pH>8): 0.8
